Assays:
human MetAP2 enzyme [1] = target: T1, human MetAP2 enzyme (Homo sapiens, UniProt P50579); test: MetAP2 enzyme assay, MetAP2 enzyme complexed with cobalt ions; settings: MetAP2 Co pIC50, 10 μM CoCl2; -log(IC50), IC50 molar
human MetAP2 enzyme [2] = target: T1, human MetAP2 enzyme; test: MetAP2 enzyme assay, MetAP2 enzyme complexed with manganese ions; settings: MetAP2 Mn pIC50, 10 μM MnCl2; -log(IC50), IC50 molar

T1 sequence (P50579 whole entry): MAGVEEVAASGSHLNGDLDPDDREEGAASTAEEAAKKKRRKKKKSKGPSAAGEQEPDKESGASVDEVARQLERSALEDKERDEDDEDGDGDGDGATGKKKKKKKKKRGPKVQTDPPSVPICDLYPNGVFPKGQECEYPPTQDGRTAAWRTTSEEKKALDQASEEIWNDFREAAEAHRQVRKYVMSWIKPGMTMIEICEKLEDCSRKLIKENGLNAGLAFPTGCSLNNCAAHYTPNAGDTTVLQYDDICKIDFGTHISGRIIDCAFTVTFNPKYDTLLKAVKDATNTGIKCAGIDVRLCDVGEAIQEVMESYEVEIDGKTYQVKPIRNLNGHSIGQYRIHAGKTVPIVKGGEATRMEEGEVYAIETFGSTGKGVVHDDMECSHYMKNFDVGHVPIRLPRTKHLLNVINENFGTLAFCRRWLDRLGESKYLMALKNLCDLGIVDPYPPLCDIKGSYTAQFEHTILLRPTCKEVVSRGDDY

| SMILES | IC50 (human MetAP2 enzyme [1]) | IC50 (human MetAP2 enzyme [2]) |
| --- | --- | --- |
| O=C(C1CC1)n1c2ccc(F)cc2c2[nH]ncc21 [Example 99, Cyclopropyl(7-fluoropyrazolo[4,3-b]indol-4(1H)-yl)methanone] | 794 nM | 316 nM |
| COCCNC(=O)c1ccc(-n2c3ccc(F)cc3c3[nH]ncc32)c(C)n1 [Example 102, 5-(7-Fluoropyrazolo[4,3-b]indol-4(1H)-yl)-N-(2-methoxyethyl)-6-methylpicolinamide] | 31.6 nM | 39.8 nM |
| Cc1cc(C(=O)N2CC[C@@H](O)C2)ncc1-n1c2ccc(F)cc2c2[nH]ncc21 [Example 109, (5-(7-Fluoropyrazolo[4,3-b]indol-4(1H)-yl)-4-methylpyridin-2-yl)((R)-3-hydroxypyrrolidin-1-yl)methanone] | 25.1 nM | 25.1 nM |
| Cc1cc(C(=O)N2CC(O)C2)ncc1-n1c2ccc(F)cc2c2[nH]ncc21 [Example 94, (5-(7-Fluoropyrazolo[4,3-b]indol-4(1H)-yl)-4-methylpyridin-2-yl)(3-hydroxyazetidin-1-yl)methanone] | 10 nM | 7.94 nM |
| Cc1c(-n2c3ccc(F)cc3c3[nH]ncc32)ccc2nn(C)cc12 [Example 9, 4-(2,4-Dimethyl-2H-indazol-5-yl)-7-fluoro-1,4-dihydropyrazolo[4,3-b]indole] | 10 nM | 6.31 nM |
| Cc1cc(C(=O)N2CC(N)C2)ncc1-n1c2ccc(F)cc2c2[nH]ncc21 [Example 114, (3-Aminoazetidin-1-yl)(5-(7-fluoropyrazolo[4,3-b]indol-4(1H)-yl)-4-methylpyridin-2-yl)methanone] | 25.1 nM | 12.6 nM |
| Cc1nc2c(cc1-n1c3ccc(F)cc3c3[nH]ncc31)[nH]c(=O)n2CCCO [Example 81, 6-(7-Fluoropyrazolo[4,3-b]indol-4(1H)-yl)-3-(3-hydroxypropyl)-5-methyl-1H-imidazo[4,5-b]pyridin-2(3H)-one] | 5.01 nM | 6.31 nM |
| OCc1nn(C(F)F)cc1-n1c2ccc(F)cc2c2[nH]ncc21 [Example 134, (1-(Difluoromethyl)-4-(7-fluoropyrazolo[4,3-b]indol-4(1H)-yl)-1H-pyrazol-3-yl)methanol] | 15.8 nM | 6.31 nM |
| Cc1nc(C(=O)NCCO)ccc1-n1c2ccc(F)cc2c2[nH]ncc21 [Example 96, 5-(7-Fluoropyrazolo[4,3-b]indol-4(1H)-yl)-N-(2-hydroxyethyl)-6-methylpicolinamide] | 20 nM | 12.6 nM |
| Cc1nc(N2C[C@H]3C[C@H]3[C@H]2C(N)=O)ncc1-n1c2ccc(F)cc2c2[nH]ncc21 [Example 136, (1R,2S,5S)-3-(5-(7-Fluoropyrazolo[4,3-b]indol-4(1H)-yl)-4-methylpyrimidin-2-yl)-3-azabicyclo[3.1.0]hexane-2-carboxamide] | 5.01 nM | 5.01 nM |
| CCn1cnc2cc(-n3c4ccc(F)cc4c4[nH]ncc43)c(C)nc21 [Example 30, 4-(3-Ethyl-5-methyl-3H-imidazo[4,5-b]pyridin-6-yl)-7-fluoro-1,4-dihydropyrazolo[4,3-b]indole] | 3.98 nM | 6.31 nM |
| Cc1nc(N2CCOCC2)ccc1-n1c2ccc(F)cc2c2[nH]ncc21 [Example 66, 4-(5-(7-Fluoropyrazolo[4,3-b]indol-4(1H)-yl)-6-methylpyridin-2-yl)morpholine] | 10 nM | 3.16 nM |
| Cc1cc(C(=O)NCCO)ncc1-n1c2ccc(F)cc2c2[nH]ncc21 [Example 95, 5-(7-Fluoropyrazolo[4,3-b]indol-4(1H)-yl)-N-(2-hydroxyethyl)-4-methylpicolinamide] | 31.6 nM | 20 nM |
| Cc1c(-n2c3ccc(F)cc3c3[nH]ncc32)cnc2[nH]c(=O)[nH]c12 [Example 28, 6-(7-Fluoropyrazolo[4,3-b]indol-4(1H)-yl)-7-methyl-1H-imidazo[4,5-b]pyridin-2(3H)-one] | 6.31 nM | 5.01 nM |
| Cc1nc(N2CC[C@H](C(=O)N3CC(O)C3)C2)ncc1-n1c2ccc(F)cc2c2[nH]ncc21 [Example 111, ((3S)-1-(5-(7-Fluoropyrazolo[4,3-b]indol-4(1H)-yl)-4-methylpyrimidin-2-yl)pyrrolidin-3-yl)(3-hydroxyazetidin-1-yl)methanone] | 7.94 nM | 12.6 nM |
| Cc1nc(N2CC(C(N)=O)C2)ncc1-n1c2ccc(F)cc2c2[nH]ncc21 [Example 89, 1-(5-(7-Fluoropyrazolo[4,3-b]indol-4(1H)-yl)-4-methylpyrimidin-2-yl)azetidine-3-carboxamide] | 20 nM | 10 nM |
| Cn1nc(C(=O)NCCO)cc1-n1c2ccc(F)cc2c2[nH]ncc21 [Example 88, 5-(7-Fluoropyrazolo[4,3-b]indol-4(1H)-yl)-N-(2-hydroxyethyl)-1-methyl-1H-pyrazole-3-carboxamide] | 25.1 nM | 10 nM |
| Cc1nc(N2CCC(C#N)CC2)ncc1-n1c2ccc(F)cc2c2[nH]ncc21 [Example 56, 1-(5-(7-Fluoropyrazolo[4,3-b]indol-4(1H)-yl)-4-methylpyrimidin-2-yl)piperidine-4-carbonitrile] | 12.6 nM | 7.94 nM |
| Cc1nc(N2C[C@H]3C[C@H]3[C@@H]2C(N)=O)ncc1-n1c2ccc(F)cc2c2[nH]ncc21 [Example 135, (1R,2R,5S)-3-(5-(7-Fluoropyrazolo[4,3-b]indol-4(1H)-yl)-4-methylpyrimidin-2-yl)-3-azabicyclo[3.1.0]hexane-2-carboxamide] | 5.01 nM | 5.01 nM |
| Cc1nc(N2CCC[C@@H]2C(N)=O)ncc1-n1c2ccc(F)cc2c2[nH]ncc21 [Example 73, (2R)-1-(5-(7-Fluoropyrazolo[4,3-b]indol-4(1H)-yl)-4-methylpyrimidin-2-yl)pyrrolidine-2-carboxamide] | 6.31 nM | 3.16 nM |
| Cc1nc2[nH]cnc2cc1-n1c2cc(Cl)ccc2c2[nH]ncc21 [Example 128, 6-Chloro-4-(5-methyl-3H-imidazo[4,5-b]pyridin-6-yl)-1,4-dihydropyrazolo[4,3-b]indole] | 79.4 nM | 63.1 nM |
| Cc1nc2c(cc1-n1c3ccc(F)cc3c3[nH]ncc31)ncn2CCS(C)(=O)=O [Example 116, 7-Fluoro-4-(5-methyl-3-(2-(methylsulfonyl)ethyl)-3H-imidazo[4,5-b]pyridin-6-yl)-1,4-dihydropyrazolo[4,3-b]indole] | 12.6 nM | 3.98 nM |
| O=C(c1ccc(Cn2c3ccc(F)cc3c3[nH]ncc32)cc1)N1CCOCC1 [Example 52, (4-((7-Fluoropyrazolo[4,3-b]indol-4(1H)-yl)methyl)phenyl)(morpholino)methanone] | 31.6 nM | 50.1 nM |
| Cc1nc(N2CCNC(=O)C2)ncc1-n1c2ccc(F)cc2c2[nH]ncc21 [Example 44, 4-(5-(7-Fluoropyrazolo[4,3-b]indol-4(1H)-yl)-4-methylpyrimidin-2-yl)piperazin-2-one] | 7.94 nM | 10 nM |
| Cc1c(-n2c3ccc(F)cc3c3[nH]ncc32)ccc2ncnn12 [Example 70, 7-Fluoro-4-(5-methyl-[1,2,4]triazolo[1,5-a]pyridin-6-yl)-1,4-dihydropyrazolo[4,3-b]indole] | 20 nM | 10 nM |
| O=C(NCCO)c1ccc(Cn2c3ccc(F)cc3c3[nH]ncc32)cc1 [Example 54, 4-((7-Fluoropyrazolo[4,3-b]indol-4(1H)-yl)methyl)-N-(2-hydroxyethyl)benzamide] | 31.6 nM | 39.8 nM |

— patent US9475816B2, “Substituted-1,4-dihydropyrazolo[4,3-b]indoles” (TAKEDA PHARMACEUTICAL COMPANY LIMITED, priority 2012, dated 2016)
